# Results reported in ChEMBL document CHEMBL1157539, “Thousands of chemical starting points for antimalarial lead identification” (Nature, 2010).
# Tested on: Plasmodium falciparum
# Assay: GSK_TCMDC: Inhibition of Plasmodium falciparum 3D7 in whole erythrocytes, using parasite LDH activity as an index of growth.
# Format: functional, organism-based
# Conditions: Plasmodium falciparum, 3D7
row,Compound,XC50
1,Cc1cccc2nc(-c3ccc(-c4ccc(CNCCN5CCNCC5)cc4)s3)[nH]c12,1150 nM
2,C[C@H](Cc1ccc(OCCCCCOc2ccc(C[C@@H](C)NC[C@H](O)c3cccc(Cl)c3)cc2)cc1)NC[C@H](O)c1cccc(Cl)c1,190 nM
3,COc1ccc(C2(CNCC(O)c3cccc([N+](=O)[O-])c3)CCCCC2)cc1OC (configuration not stated),957 nM
4,COc1cc2c(=O)c(Cc3ccc(Cl)cc3)c(C)[nH]c2cc1F,1160 nM
5,CC(C)(C)C1CC(=O)CC2C(=O)N(c3ccc(Br)cc3)C(=O)C21 (configuration not stated),934 nM
6,Cc1nc(C)c(-c2ccc(Br)cc2)c(O)c1Br,638 nM
7,COc1cccc(NC(=O)Cn2c(C)c(C#N)c3ccccc32)c1,878 nM
8,CCCCc1cc(O)c2c(c1)OC(C)(C)C=C2C1=CCN(Cc2ccccc2)CC1,247 nM
9,FC(F)(F)c1cccc(CCNc2nccc(NCc3ccc(Cl)cc3Cl)n2)c1,858 nM
10,O=C(Nc1ccc(C(=O)Nc2cccc(C3=NCCN3)c2)cc1)Nc1ccc(C2=NCCN2)cc1,96 nM
11,CC(C)(C)c1ccc(-c2cc(C(=O)N[C@@H](CO)C(=O)O)on2)cc1.CC(C)(C)c1ccc(-c2nocc2C(=O)N[C@@H](CO)C(=O)O)cc1,966 nM
12,Cc1cccc2nc(-c3cccc(-c4cccc(NC(=O)Nc5ccc(Cl)cc5)c4)c3)[nH]c12,236 nM
13,O=C(Nc1ccc(-c2nc3ccccc3[nH]2)cc1)c1ccc([N+](=O)[O-])s1,252 nM
14,O=C(Nc1cccc(-c2cccc(CN3CCCC3)c2)c1)c1ccc(Cl)cc1,684 nM
15,CC(CCCCC(=O)Nc1ccc(CC(C)NCCc2cccc(Cl)c2)cc1)NCCc1cccc(Cl)c1 (configuration not stated),1010 nM
16,CC(C)(C)OC(=O)n1cc(C2CCN(CCCC34CCCc5cccc(c53)NC4=O)CC2)c2ccncc21 (configuration not stated),876 nM
17,COc1cc(C)cc(CN2CCC(Cc3ccccc3)CC2)c1O,1020 nM
18,O=C(Nc1ccc(-c2cccc(-c3nc4cc(C(F)(F)F)ccc4[nH]3)c2)cc1)c1csnn1,802 nM
19,COc1nc2c(N3CCN(CCNCc4ccc5c(n4)NC(=O)CO5)CC3)ccnc2cc1F,758 nM
20,CCCN1CCN(c2ccccc2NS(=O)(=O)c2ccc(C(=O)Nc3ccc(Cl)cc3)cc2)CC1,1140 nM
21,CC(Cc1ccc(NC(=O)c2ccc(CNCCc3ccccc3)cc2)cc1)NCCc1cccc(Cl)c1 (configuration not stated),353 nM
22,CN(C1CCC(NC(=O)/C=C/c2ccccc2)CC1)C1CC2(CCN(C(=O)OC(C)(C)C)CC2)c2ccccc21 (configuration not stated),822 nM
23,O=C(NC1CCN(Cc2cccc(C(F)(F)F)c2)CC1)c1ccc(-c2cccc(C(F)(F)F)c2)s1,1010 nM
24,COc1ccc2nc3cc(Cl)ccc3c(Nc3ccc(O)c(CNC(C)C)c3)c2c1,140 nM

row,Compound,XC50
1,CC(C)CCNC(=O)C1Cc2c([nH]c3cc(Br)ccc23)C2(CCN(Cc3ccccc3)CC2)N1 (configuration not stated),792 nM
2,N=C(N)c1ccc2[nH]c(SCc3ccccc3)nc2c1,687 nM
3,CC(=O)c1cccc(S(=O)(=O)NCCCNc2nc3cc(C)cc(C)c3cc2C#N)c1,914 nM
4,O=C(Nc1cccc(-c2cccc(-c3nc4cc(C(F)(F)F)ccc4[nH]3)c2)c1)Nc1ccc(F)c(F)c1F,119 nM
5,Cc1nc(-c2cccc3c(NC(=O)N4CCc5cc6nccc(N7CCN(C)CC7)c6cc54)cccc23)no1,760 nM
6,CN1CCCC1CCNC(=O)[C@H](CC1CCCCC1)NC(=O)c1ccc(O)c(-c2ccc(Cl)c(Cl)c2)c1 (some centres not stated),736 nM
7,CCOC(=O)N1NC(=O)N(c2ccccc2)C1(c1ccccc1)c1ccccc1,697 nM
8,CCCN(CCC)CCCNc1ccc(C(=O)Nc2ccc(C(C)C)cc2)cc1[N+](=O)[O-],709 nM
9,O=C(Nc1nccs1)c1cn(-c2ccccc2)nc1-c1ccc(Cl)s1,970 nM
10,Cc1cc(=NN=Cc2ccc(Cl)cc2)c2ccccc2[nH]1,787 nM
11,COc1ccc(-c2ncnc(C(F)(F)F)c2-c2ccc(Cl)cc2)c(O)c1,805 nM
12,COc1ccc2nc(/N=C3\NC(c4ccccn4)(c4ccccn4)C(=O)N3C)[nH]c2c1,586 nM
13,COc1ccc(C(=O)N2CCC3(CC2)C(=O)N(CC(=O)NC2CCCCC2)CN3c2ccccc2)c(OC)c1,224 nM
14,Cc1cc(N[C@@H](CC(C)C)C(=O)NCc2cccc(F)c2)nc(NCC2CCCCC2)n1,834 nM
15,O=C(Nc1ccnc2ccccc12)NC1CCN(CCc2ccccc2)CC1,364 nM
16,O=C1NC(=O)C(c2ccc(Cl)cc2)=C1Nc1cccc(S(=O)(=O)C(F)(F)F)c1,744 nM
17,COc1cc(OC)c2c(C)cc(NCCCN3CCOCC3)nc2c1,1070 nM
18,Cn1cncc1C(=O)Nc1ccc(-c2cccc(-c3nc4cc(F)ccc4[nH]3)c2)cc1,818 nM
19,O=C(NCCCCN1CCC(c2ccc3c(c2O)CCCC3)CC1)c1ccc(-c2ccc(Cl)cc2)cc1,754 nM
20,COc1ccc(C2CC(=O)C3=C(C2)NC(C)=C(C(=O)OC2CCCC2)C3c2cccc(O)c2)cc1 (configuration not stated),1010 nM
21,O=C(Nc1ccc(-c2ccccc2)cc1)Nc1cccc(OCCN2CCCC2)c1,935 nM
22,Cc1c(Cl)ccc2c(C(=O)Nc3ccncc3)cc(-c3cccnc3)nc12,777 nM
23,COc1ccc2c(c1)c(C1CCN(CCCCNC(=O)c3ccc(-c4ccc(C(F)(F)F)cc4)cc3)CC1)cn2C(C)C,729 nM
